Data taken from patent EP1501514B1, “PROTEIN KINASE MODULATORS AND METHODS OF USE” (Exelixis, Inc., priority 2002, dated 2003).
pIC50: −log10 of the molar value. Like-named read-outs stand apart in the source and are kept apart here.

Target: T1, Chk1 (Homo sapiens, UniProt O14757)
T1 construct: purchased Upstate Biotechnology
T1 sequence (O14757 1-476): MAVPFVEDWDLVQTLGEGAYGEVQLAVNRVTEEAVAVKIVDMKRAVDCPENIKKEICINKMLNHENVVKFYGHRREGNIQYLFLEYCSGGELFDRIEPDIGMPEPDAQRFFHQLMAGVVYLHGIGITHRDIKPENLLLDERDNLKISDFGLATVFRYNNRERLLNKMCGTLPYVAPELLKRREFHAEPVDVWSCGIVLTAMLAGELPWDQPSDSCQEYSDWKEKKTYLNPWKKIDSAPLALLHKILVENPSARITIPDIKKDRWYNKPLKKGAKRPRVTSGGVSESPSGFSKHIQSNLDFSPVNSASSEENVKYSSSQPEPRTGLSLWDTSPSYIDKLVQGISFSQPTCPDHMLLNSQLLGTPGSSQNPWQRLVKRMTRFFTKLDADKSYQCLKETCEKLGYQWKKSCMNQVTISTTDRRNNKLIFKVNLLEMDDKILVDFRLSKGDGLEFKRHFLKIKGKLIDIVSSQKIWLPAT
Test: Chk1 assay: incorporation of γ-33P ATP into immobilized myelin basic protein
Format: biochemical
Method: Chk1 and Chk2 assays were performed by measuring incorporation of γ-^33P ATP into immobilized myelin basic protein (MBP). High binding white 384 well plates (Greiner) were coated with MBP (Sigma #M-1891) by incubation of 60ul/well of 20µg/ml MBP in Tris-buffered saline (TBS; 50mM Tris pH 8.0, 138mM NaCl, 2.7mM KCl) for 24 hours at 4° C. Plates were washed 3X with 100µl TBS. Kinase reactions were carried out in a total volume of 34µl in kinase buffer (5mM Hepes pH 7.6, 15mM NaCl, 0.01% bovine gamma globulin (Sigma #I-5506), 10mM MgCl2, 1mM DTT, 0.02% TritonX-100). Compound dilutions were performed in DMSO and added to assay wells to a final DMSO concentration of 1%. Each data point was measured in duplicate, and at least two duplicate assays were performed for each individual compound determination. Chkl and Chk2 enzymes (Upstate Biotechnology) were added to final concentrations of 10nM (Chkl) or 20nM (Chk2). A mixture of unlabeled ATP and γ-^33P ATP was added to start the reaction (2x10^6 cpm of γ-^33P ATP per well (3000Ci/mmole) and either 10µM or 30µM unlabeled ATP (for Chkl and Chk2 assays respectively). The reaction was carried out for 1 hour at room temperature with shaking. Plates were washed 7x with TBS, followed by the addition of 50µl/well scintillation fluid (Wallac). Plates were read using a Wallac Trilux counter. This is only one format of such assays, various other formats are possible, as known to those skilled in the art.
The above assay procedure can be used to determine the IC50 for inhibition and/or the inhibition constant Ki. The IC50 is defined as the concentration of compound required to reduce the enzyme activity by 50% under the conditions of the assay. […] The Ki for a compound may be determined from the IC50 based on three assumptions. First, only one compound molecule binds to the enzyme and there is no cooperativity. […] Third, the enzymatic rate of the enzyme-inhibitor complex is zero. The rate (i.e., compound concentration) data are fitted to the equation: V = Vmax E0 [I-((E0+I0+Kd)-sqrt(((E0+I0+Kd))^2 -4E0 I0))/(2E0)] [formula]

[1] = Table 11, inhibition given as IC50 class symbol

Row | pIC50 (Table 11, Chk1 only) | SMILES | also measured
1 | 5.00 to 6.00 | CNC(=O)c1nc(-c2ccc(OC)cc2)cnc1N [compound 54, 3-amino-N-methyl-6-[4-(methyloxy)phenyl]pyrazine-2-carboxamide] | –
2 | 6.00 to 7.30 | CNC(=O)c1nc(-c2cccc(-c3ccccc3)c2)cnc1N [compound 55, 3-amino-6-biphenyl-3-yl-N-methylpyrazine-2-carboxamide] | –
3 | 6.00 to 7.30 | CNC(=O)c1nc(-c2cccc(NC(C)=O)c2)cnc1N [compound 56, 6-[3-(acetylamino)phenyl]-3-amino-N-methylpyrazine-2-carboxamide] | –
4 | 6.00 to 7.30 | CNC(=O)c1nc(-c2ccc(F)c(C)c2)cnc1N [compound 61, 3-amino-6-(4-fluoro-3-methylphenyl)-N-methylpyrazine-2-carboxamide] | –
5 | 5.00 to 6.00 | CNC(=O)c1nc(-c2cccnc2)cnc1N [compound 62, 3-amino-N-methyl-6-pyridin-3-ylpyrazine-2-carboxamide] | –
6 | 5.00 to 6.00 | CNC(=O)c1cccc(-c2cnc(N)c(C(=O)NC)n2)c1 [compound 64, 3-amino-N-methyl-6-{3-[(methylamino)carbonyl]phenyl}pyrazine-2-carboxamide] | –
7 | 5.00 to 6.00 | CNC(=O)c1nc(-c2cccc(C(C)=O)c2)cnc1N [compound 65, 6-(3-acetylphenyl)-3-amino-N-methylpyrazine-2-carboxamide] | –
8 | < 5.00 | CNC(=O)c1nc(-c2noc(-c3cccnc3)n2)cnc1N [compound 66, 3-amino-N-methyl-6-(5-pyridin-3-yl-1,2,4-oxadiazol-3-yl)pyrazine-2-carboxamide] | –
9 | < 5.00 | CNC(=O)c1nc(-c2noc(C3CCCCC3)n2)cnc1N [compound 68, 3-amino-6-(5-cyclohexyl-1,2,4-oxadiazol-3-yl)-N-methylpyrazine-2-carboxamide] | –
10 | 5.00 to 6.00 | CNC(=O)c1nc(-c2noc(C)n2)cnc1N [compound 71, 3-amino-N-methyl-6-(5-methyl-1,2,4-oxadiazol-3-yl)pyrazine-2-carboxamide] | –
11 | < 5.00 | CNC(=O)c1nc(-c2noc(-c3ccncc3)n2)cnc1N [compound 73, 3-amino-N-methyl-6-(5-pyridin-4-yl-1,2,4-oxadiazol-3-yl)pyrazine-2-carboxamide] | –
12 | 5.00 to 6.00 | Cc1cccc(-c2cnc(N)c(C(=O)NCCO)n2)c1 [compound 329, 3-amino-N-(2-hydroxyethyl)-6-(3-methylphenyl)pyrazine-2-carboxamide] | –
13 | 6.00 to 7.30 | CNC(=O)c1nc(-c2cccc(C(=O)NCc3ccc(C(C)(C)C)cc3)c2)cnc1N [compound 353, 3-amino-6-{3-[({[4-(1,1-dimethylethyl)phenyl]methyl}amino)carbonyl]phenyl}-N-methylpyrazine-2-carboxamide] | –
14 | – | CC(C)(C)c1nnc(-c2nc(-c3cccc(CO)c3)cnc2N)[nH]1 [compound 569, (3-{5-amino-6-[5-(1,1-dimethylethyl)-4H-1,2,4-triazol-3-yl]pyrazin-2-yl}phenyl)methanol] | pIC50 [1]: 5.00 to 6.00
15 | – | C[C@@H](NC(=O)c1cccc(-c2cnc(N)c(C(=O)N[C@H]3CCNC3)n2)c1)c1ccccc1 [compound 716, 3-amino-6-[3-({[(1R)-1-phenylethyl]amino}carbonyl)phenyl]-N-[(3S)-pyrrolidin-3-yl]pyrazine-2-carboxamide] | pIC50 [1]: 5.00 to 6.00
16 | – | N=C(NNc1ccccc1)c1nc(-c2cccc(C(=O)N[C@H]3CCc4ccccc43)c2)cnc1N [compound 720, 3-{5-amino-6-[imino(2-phenylhydrazino)methyl]pyrazin-2-yl}-N-[(1S)-2,3-dihydro-1H-inden-1-yl]benzamide] | pIC50 [1]: < 5.00
17 | – | CC(C)(C)OC(=O)N1CC[C@H](NC(=O)c2nc(-c3cccc(C(=O)NCc4ccc(Cl)cc4)c3)cnc2N)C1 [compound 756, 1,1-dimethylethyl (3S)-3-[({3-amino-6-[3-({[(4-chlorophenyl)methyl]amino}carbonyl)phenyl]pyrazin-2-yl}carbonyl)amino]pyrrolidine-1-carboxylate] | pIC50 [1]: 6.00 to 7.30
18 | – | Nc1ncc(-c2cccc(C(=O)NCc3cccnc3)c2)nc1C(=O)N[C@H]1CCNC1 [compound 762, 3-amino-6-(3-{[(pyridin-3-ylmethyl)amino]carbonyl}phenyl)-N-[(3S)-pyrrolidin-3-yl]pyrazine-2-carboxamide] | pIC50 [1]: 6.00 to 7.30
19 | – | Nc1ncc(-c2cccc(C(=O)N[C@H]3CCc4ccccc43)c2)nc1C(=O)N[C@H]1CCCNC1 [compound 764, 3-amino-6-(3-{[(1S)-2,3-dihydro-1H-inden-1-ylamino]carbonyl}phenyl)-N-[(3S)-piperidin-3-yl]pyrazine-2-carboxamide] | pIC50 [1]: > 7.30
20 | – | CC(C)(C)OC(=O)N1CC[C@H](CNC(=O)c2nc(-c3cccc(C(=O)N[C@H]4CCc5ccccc54)c3)cnc2N)C1 [compound 784, 1,1-dimethylethyl (3R)-3-[({[3-amino-6-(3-{[(1S)-2,3-dihydro-1H-inden-1-ylamino]carbonyl}phenyl)pyrazin-2-yl]carbonyl}amino)methyl]pyrrolidine-1-carboxylate] | pIC50 [1]: < 5.00
21 | – | Nc1ncc(-c2cccc(C(=O)NCc3ccc(-c4cccs4)cc3)c2)nc1C(=O)N[C@H]1CCCNC1 [compound 854, 3-amino-N-[(3S)-piperidin-3-yl]-6-{3-[({[4-(2-thienyl)phenyl]methyl}amino)carbonyl]phenyl}pyrazine-2-carboxamide] | pIC50: > 7.30
22 | – | Cc1ccc(C(=O)Nc2cccc(-c3cnc(N)c(C(=O)N[C@H]4CCCNC4)n3)c2)cn1 [compound 978, 3-amino-6-(3-{[(6-methylpyridin-3-yl)carbonyl]amino}phenyl)-N-[(3S)-piperidin-3-yl]pyrazine-2-carboxamide] | pIC50: > 7.30
23 | – | Nc1ncc(-c2cccc(C(=O)NCc3cc(C(F)(F)F)ccc3Cl)c2)nc1C(=O)N[C@H]1CCCNC1 [compound 994, 3-amino-6-{3-[({[2-chloro-5-(trifluoromethyl)phenyl]methyl}amino)carbonyl]phenyl}-N-[(3S)-piperidin-3-yl]pyrazine-2-carboxamide] | pIC50: > 7.30
24 | – | Nc1ncc(-c2cccc(C(=O)NCc3ccc(C(F)(F)F)cc3F)c2)nc1C(=O)N[C@H]1CCCNC1 [compound 1001, 3-amino-6-{3-[({[2-fluoro-4-(trifluoromethyl)phenyl]methyl}amino)carbonyl]phenyl}-N-[(3S)-piperidin-3-yl]pyrazine-2-carboxamide] | pIC50: > 7.30
25 | – | Nc1ncc(-c2cccc(C(=O)NCc3ccc(F)c(Cl)c3)c2)nc1C(=O)N[C@H]1CCCNC1 [compound 1006, 3-amino-6-[3-({[(3-chloro-4-fluorophenyl)methyl]amino}carbonyl)phenyl]-N-[(3S)-piperidin-3-yl]pyrazine-2-carboxamide] | pIC50: > 7.30
